Assays:
Type in all cases: functional
Amaranthus retroflexus [1] = assay: Herbicidal activity against Amaranthus retroflexus assessed as inhibition of weed growth at 375 g/ha using postemergence treatment protocol; conditions: post-emergence
Amaranthus retroflexus [2] = assay: Herbicidal activity against Amaranthus retroflexus assessed as inhibition of weed growth at 750 g/ha using postemergence treatment protocol; conditions: post-emergence
Digitaria sanguinalis [3] = assay: Herbicidal activity against Digitaria sanguinalis (hairy crabgrass) assessed as inhibition of weed growth at 1.5 kg/ha using post-emergence treatment protocol
Amaranthus retroflexus [4] = assay: Herbicidal activity against Amaranthus retroflexus assessed as inhibition of weed growth at 1.5 kg/ha using postemergence treatment protocol; conditions: post-emergence
Brassica napus [5] = assay: Herbicidal activity against Brassica napus (oilseed rape) assessed as inhibition of weed growth at 375 g/ha using postemergence treatment protocol; conditions: post-emergence
Brassica napus [6] = assay: Herbicidal activity against Brassica napus (oilseed rape) assessed as inhibition of weed growth at 750 g/ha using postemergence treatment protocol; conditions: post-emergence
Brassica napus [7] = assay: Herbicidal activity against Brassica napus (oilseed rape) assessed as inhibition of weed growth at 1.5 kg/ha using preemergence treatment protocol; conditions: pre-emergence
Digitaria sanguinalis [8] = assay: Herbicidal activity against Digitaria sanguinalis (hairy crabgrass) assessed as inhibition of weed growth at 1.5 kg/ha using pre-emergence treatment protocol
Echinochloa crus-galli [9] = assay: Herbicidal activity against Echinochloa crus-galli (barnyard grass) assessed as inhibition of weed growth at 1.5 kg/ha using preemergence treatment protocol; conditions: pre-emergence
Amaranthus retroflexus [10] = assay: Herbicidal activity against Amaranthus retroflexus assessed as inhibition of weed growth at 1.5 kg/ha using preemergence treatment protocol; conditions: pre-emergence
Brassica napus [11] = assay: Herbicidal activity against Brassica napus (oilseed rape) assessed as inhibition of weed growth at 1.5 kg/ha using postemergence treatment protocol; conditions: post-emergence
Echinochloa crus-galli [12] = assay: Herbicidal activity against Echinochloa crus-galli (barnyard grass) assessed as inhibition of weed growth at 1.5 kg/ha using postemergence treatment protocol; conditions: post-emergence
Amaranthus retroflexus [13] = assay: Herbicidal activity against Amaranthus retroflexus assessed as inhibition of weed growth at 75 g/ha using postemergence treatment protocol; conditions: post-emergence
Amaranthus retroflexus [14] = assay: Herbicidal activity against Amaranthus retroflexus assessed as inhibition of weed growth at 150 g/ha using postemergence treatment protocol; conditions: post-emergence
Brassica napus [15] = assay: Herbicidal activity against Brassica napus (oilseed rape) assessed as inhibition of weed growth at 75 g/ha using postemergence treatment protocol; conditions: post-emergence
Brassica napus [16] = assay: Herbicidal activity against Brassica napus (oilseed rape) assessed as inhibition of weed growth at 150 g/ha using postemergence treatment protocol; conditions: post-emergence

Row | SMILES | inhibition at 375 g/ha (Amaranthus retroflexus [1]) [%] | inhibition at 750 g/ha (Amaranthus retroflexus [2]) [%] | inhibition at 1500 g/ha (Digitaria sanguinalis [3]) [%] | inhibition at 1500 g/ha (Amaranthus retroflexus [4]) [%] | inhibition at 375 g/ha (Brassica napus [5]) [%] | inhibition at 750 g/ha (Brassica napus [6]) [%] | inhibition at 1500 g/ha (Brassica napus [7]) [%] | inhibition at 1500 g/ha (Digitaria sanguinalis [8]) [%] | inhibition at 1500 g/ha (Echinochloa crus-galli [9]) [%] | inhibition at 1500 g/ha (Amaranthus retroflexus [10]) [%] | inhibition at 1500 g/ha (Brassica napus [11]) [%] | inhibition at 1500 g/ha (Echinochloa crus-galli [12]) [%] | inhibition at 75 g/ha (Amaranthus retroflexus [13]) [%] | inhibition at 150 g/ha (Amaranthus retroflexus [14]) [%] | inhibition at 75 g/ha (Brassica napus [15]) [%] | inhibition at 150 g/ha (Brassica napus [16]) [%]
1 | CCOCCOC(=O)/C(C#N)=C(\NCc1cc(-c2ccccc2)no1)SC | 7 | 34 | 55.5 | 100 | 17.8 | 100 | 15.8 | 0 | 0 | 67.7 | 100 | 57 |  |  |  | 
2 | CCOCCOC(=O)/C(C#N)=C(\NCc1cc(C(C)C)no1)SC | 0 | 37.6 | 48.4 | 94 | 52.3 | 76.9 |  | 0 | 0 | 25 | 100 | 32.6 |  |  |  | 
3 | CCOCCOC(=O)/C(C#N)=C(\NCc1cc(-c2ccccc2Cl)no1)C(C)C | 96 | 98.3 | 24 | 100 | 100 | 100 |  | 0 | 0 | 0 | 100 | 47.2 | 77 | 94.4 | 100 | 100
4 | CCOCCOC(=O)/C(C#N)=C(\NCc1cc(-c2ccc(Cl)cc2)no1)SC | 4 | 22 | 72.7 | 89.9 | 0 | 0 | 28.4 | 14.8 | 0 | 23.1 | 100 | 58.2 |  |  |  | 
5 | CCOCCOC(=O)/C(C#N)=C(\NCc1cc(-c2ccc(OC)cc2)no1)C(C)C | 100 | 100 | 14.3 | 100 | 100 | 100 | 40.9 | 0 | 0 | 45.2 | 100 | 0 | 65.2 | 93.5 | 82.5 | 100
6 | CCOCCOC(=O)/C(C#N)=C(\NCc1cc(-c2ccc(Cl)cc2Cl)no1)SC | 0 | 46 | 64.1 | 89.9 | 0 | 0 | 45 | 15.6 | 0 | 65.8 | 100 | 45.2 |  |  |  | 
7 | CCOCCOC(=O)/C(C#N)=C(\NCc1cc(-c2ccccc2OC)no1)SC | 0 | 16 | 52.3 | 90.6 | 15.8 | 43.8 | 19 | 17.3 | 0 | 47.8 | 100 | 52 |  |  |  | 
8 | CCOCCOC(=O)/C(C#N)=C(\NCc1cc(-c2ccccc2)no1)C(C)C | 100 | 100 | 59.4 | 100 | 100 | 100 | 28.7 | 24.9 | 0 | 88.6 | 100 | 40 | 17.4 | 78.3 | 54.2 | 97.3
9 | CCOCCOC(=O)/C(C#N)=C(\NCc1cc(C(C)C)no1)C(C)C | 54.6 | 100 | 48.4 | 100 | 97.7 | 100 |  | 0 | 5 | 100 | 100 | 12.5 | 0 | 0 | 52 | 92.8
10 | CCOCCOC(=O)/C(C#N)=C(\NCc1cc(-c2ccccc2OC)no1)C(C)C | 100 | 100 | 82 | 95.1 | 100 | 100 | 17.4 | 5.5 | 0 | 44.9 | 100 | 56.4 | 17.4 | 23.9 | 17.1 | 27
11 | CCOCCOC(=O)/C(C#N)=C(\NCc1cc(-c2ccc(OC)cc2)no1)SC | 34.8 | 87 | 32.5 | 100 | 57.5 | 94.6 | 10 | 0 | 0 | 0 | 100 | 0 |  |  |  | 
12 | CCOCCOC(=O)/C(C#N)=C(\NCc1cc(-c2ccc(Cl)cc2Cl)no1)C(C)C | 100 | 100 | 63.3 | 100 | 100 | 100 | 21.3 | 18.1 | 0 | 50.2 | 100 | 56.7 | 10.9 | 19.6 | 11.4 | 21.8
13 | CCOCCOC(=O)/C(C#N)=C(\NCc1ccc(Cl)nc1)SC | 18.7 | 87.9 | 54.1 | 100 | 100 | 100 | 47.6 | 18.8 | 3.6 | 32.4 | 100 | 55.3 | 0 | 0 | 80.9 | 100
14 | CCOCCOC(=O)/C(C#N)=C(\NCc1cc(Br)no1)SC | 0 | 0 | 55.3 | 99.1 | 87 | 93 |  | 0 | 2.4 | 0 | 100 | 36.8 |  |  |  | 
15 | CCOCCOC(=O)/C(C#N)=C(\NCc1cc(-c2ccc(C(C)(C)C)cc2)no1)C(C)C | 54.3 | 89.1 | 24.7 | 100 | 41.7 | 85.8 | 0 | 0 | 0 | 0 | 100 | 0 |  |  |  | 
16 | CCOCCOC(=O)/C(C#N)=C(\NCc1cc(Br)no1)C(C)C | 100 | 100 | 42.1 | 100 | 100 | 100 |  | 0 | 22.6 | 60 | 100 | 66.5 | 46.5 | 90 | 100 | 100
17 | CCOCCOC(=O)/C(C#N)=C(\NCc1cc(-c2ccc(C(C)(C)C)cc2)no1)SC | 28.3 | 45.7 | 55.8 | 100 | 9.8 | 22.2 | 0 | 0 | 0 | 10 | 100 | 0 |  |  |  | 
